Data reported in patent publication US6083920A, “Compositions for modulating intracellular inositol trisphosphate concentration” (priority 1996, dated 2000).
Entries after “also recorded” stand apart in the source; their conditions may differ.

Columns and labels:
hippocampal neurons = assay: Histological analysis of brain 7 days after ICV infusion (cresyl violet); format: in vivo, male F344 rats; conditions: for HISTOLOGICAL CHANGES: rat
Description: Before administering various compounds, the animals were anesthetized with sodium pentobarbital (50 mg/kg, i.p.) and positioned in a sterotaxic instrument. A 26 gauge cannula was inserted into the cerebral ventricle at the following co-ordinates: 1.0 mm posterior to bregma, 1.5 mm lateral to the midline, and 4.0 mm below the dorsal surface of the neocortex. Cannulas were capped and fixed in place with dental cement. One week after cannulation, 10 μl of each of the treatment drugs was infused, ICV (i.e. into the ventricals of the brain), via a micropump at a rate of 10 μl/min. For this procedure, the animals were lightly restrained and unanesthetized. Following administration of the compound, the infusion cannula remained in position for one minute, after which the permanent in situ cannula was capped.
Seven days after the compounds were administered, animals were sacrificed by transcardial perfusion with neutralized, buffered 10% formalin-saline. Their brains were removed, post-fixed overnight in 10% formalin-saline, and sectioned along the coronal plane (into 50 μm thick sections) on a freezing microtome. The sections were stained with cresyl violet to determine the extent of cellular destruction. […]
Given that high concentrations of metabotropic receptors are located in the hippocampus, and that the hippocampus is particularly vulnerable to the effects of a variety of insults including ischemia and hypoxia, this region was examined for evidence of neuronal degeneration due to glutamate excitotoxicity.

cultured neurons = assay: Lysosphingolipid content of cultured neurons by NBDZF fluorescence tagging; format: cell-based, chick; conditions: for lysosphingolipid content, 0 hours of incubation / lysosphingolipid content, 0.5 hours of incubation / lysosphingolipid content, 1.0 hours of incubation / lysosphingolipid content, 2.0 hours of incubation / lysosphingolipid content, 3.0 hours of incubation: Intact neurons, 10 μmolar exposure; for content of sphingosine in the neurons following exposure: exposure to 50 μM lysosphingolipid, 1 hour
Source text: Agonist-binding to metabotropic receptors influences the levels of lysosphingolipid in neuronal membranes. However, there is no convenient methodology available for the measurement of lysosphingolipid content in cultured neurons. As a result, a sensitive method of fluorometric tracing has been devised and is described herein. The measurement of lysosphingolipid content in cultured neurons is based on the stable fluorescence-tagging procedure using 4-fluoro, 7-nitrobenzofuran (NBDZF) described by Nozowa et al J. Neurochem. 59:607-609, 1992). The procedure was applied to: resting neurons; neurons exposed to 100 μM metabotropic receptor agonist for 1 hour; resting neurons exogenously enriched in lysosphingolipids; and neurons exogenously enriched in lysosphingolipids and exposed to metabotropic receptor agonist for 1 hour. The neurons were scraped in batches of 107 (1 Petri dish, approximately 8 cm in diameter, is equivalent to 2 mg membrane protein) and subjected to anaylsis.
Total lipids were removed from the neuron samples by repeated extraction with chloroforn:methanol (2:1, vol:vol). The lysosphingolipids were separated from total neuronal lipid in 90±5% recovery yield (n=10) by the stepped chromatographic procedure of Van Veldhoven et al. (Anal. Biochem. 183:177-189, 1989). The recovered lysosphingolipids were stably tagged with NBDZF by the rapid procedure of Nozowa et al. (supra). The fluorescence tagged neuronal lysosphingolipids were separated in parallel with reference standards NBDZF-Sph, NBDZF-Psy, and NBDZF-Lsm on high performance silica gel thin layer chromatography plates with acetonitrile:H2 O (10:0.5, vol:vol). The highly fluorescent, well separated bands were scraped from the plate. The fluorescence tagged lysosphingolipids are eluted from the scraped silica gel with methanol:1 N HCl (1:0.02, vol:vol). The fluorescence tagged lysosphingolipid eluates were quantitated against reference standards by fluorescence measurement in a Perkin-Elmer LS-5 Fluorescence Spectrometer.
Sphingolipid content of neurons exposed to sphingosine, lysocerebroside, and lysosphingomyelin was examined as follows. A Petri dish containing approximately 107 neurons was incubated with 5 μCi [^3 H]myo-Ins in 3 ml DMEM overnight to prelabel the phosphoinositide InsP3 may contain. The neurons were washed with PBS and 3 ml of PBS containing 4.5 g/l glucose was added. Preparations of sphingosine, lysocerebroside, lysosphingomyelin (Sigma Chemical Co., St. Louis, Mo.) and combinations of each were prepared as the hydrochloride salt dissolved in PBS. The lysosphingolipids were added to the Petri dishes to produce a concentration ranging from 0-150 μM. […] Trypsinization removes non-specifically bound lysosphingolipids that may adhere to extracellular plasma membrane protein domain s. Non-specific adherence between cationic micelles of lysosphingolipids and the neuronal glycocatyx avoided by performing the experiments with lysosphingolipid concentrations below the critical micelle concentration. Neurons were analyzed for lysosphingolipid content as described above.

[1] = test system: calcium ion signalling in cortical neurons; assay: Metabotropic receptor function: calcium ion signalling (fura 2) in intact cortical neurons; format: cell-based, chick; conditions: neurons loaded to 150±20 pmoles per mg protein; 10 μM glutamate agonist 30 minutes
Description: Metabotropic receptor function was examined in intact neurons by assaying lysosphingolipid modulation of calcium ion signalling. Approximately 1×10^6 cortical neurons were cultured on rectangular L-polylysine-coated coverslips and loaded with lysocerebroside or lysosphingomyelin to a level of 150±20 pmoles per mg protein. The neurons were returned to complete Ham's high glucose medium/DMEM (1:1, vol:vol) and infiltrated with 5 μM fura 2/AM (Molecular Probes, Eugene, Oreg.). Fura 2 is a calcium chelator whose fluorescence absorbance shifts to shorter wavelength upon calcium ion binding is measurable in intact cells. A change in intraneuronal calcium ion concentration was monitored as a change in the fluorescence spectrum.
The neurons were exposed to 10 μM glutamate agonist (for example, ibotenate) for 30 minutes at 37° C. The coverslips were then transferred to quartz cuvettes in medium containing 250 μM sulfinpyrazone to prevent fura 2/AM diffusion. Fluorescence ratios were recorded in a Perkin-Elmer LS-5 Fluorescence Spectrometer thermostatted at 37° C. at excitation wavelengths of 340 and 380 nm, a nd emission measurement at 500 nm. Calcium ion signalling in agonist-stimulated neurons was 3.0±0.2 arbitrary units for ibotenate-exposed neurons.

Row | Compound | neuronal loss (CA1 pyramidal neurons, hippocampus) caused by quisqualate (hippocampal neurons; pretreatment with psychosine 125 nmoles, quisqualate 225 nmoles ICV, 7 days) | lysosphingolipid content, 0 hours of incubation (cultured neurons) | lysosphingolipid content, 0.5 hours of incubation (cultured neurons) | lysosphingolipid content, 1.0 hours of incubation (cultured neurons) | lysosphingolipid content, 2.0 hours of incubation (cultured neurons) | lysosphingolipid content, 3.0 hours of incubation (cultured neurons) | content of sphingosine in the neurons following exposure (cultured neurons) [pmoles/mg protein] | agonist-elicited calcium signalling in lysosphingolipid-loaded neurons [1] | HISTOLOGICAL CHANGES (hippocampal neurons; Quisqualate 100 nmoles ICV) | HISTOLOGICAL CHANGES (hippocampal neurons; Quisqualate 150 nmoles ICV) | HISTOLOGICAL CHANGES (hippocampal neurons; Quisqualate 225 nmoles ICV, seven days after application) | HISTOLOGICAL CHANGES (hippocampal neurons; Quisqualate 225 nmoles ICV, seven days after application, listed as quisqualate) | HISTOLOGICAL CHANGES (hippocampal neurons; Quisqualate 250 nmoles ICV, seven days after application, listed as quisqualate) | HISTOLOGICAL CHANGES (hippocampal neurons; Quisqualate 500 μmoles ICV)
1 | CCCCCCCCCCCCC/C=C/[C@@H](O)[C@@H](N)CO[C@@H]1O[C@H](CO)[C@H](O)[C@H](O)[C@H]1O [psychosine, lysocerebroside] | prevents the neuronal loss caused by quisqualate | 25 ± 5 pmoles lysosphingolipid/mg pla | 35 ± 15 pmoles lysosphingolipid/mg pla | 45 ± 10 pmoles lysosphingolipid/mg pla | 80 ± 5 pmoles lysosphingolipid/mg pla | 80 ± 5 pmoles lysosphingolipid/mg pla | 220±45 | no calcium signalling measurably over controls | – | – | – | – | – | –
2 | CCCCCCCCCCCCC/C=C/[C@@H](O)[C@@H](N)CO [sphingosine] | – | 85 ± 15 pmoles lysosphingolipid/mg pla | 85 ± 20 pmoles lysosphingolipid/mg pla | 110 ± 15 pmoles lysosphingolipid/mg pla | 105 ± 5 pmoles lysosphingolipid/mg pla | 115 ± 15 pmoles lysosphingolipid/mg pla | 430±70 | – | – | – | – | – | – | –
3 | N[C@@H](Cn1oc(=O)[nH]c1=O)C(=O)O [Quisqualate, quisqualate] | – | – | – | – | – | – | – | – | none observed | none observed | loss of CA1 | severe loss of neurons in the hippocampus; also recorded: considerable loss of CA1 pyramidal neurons in the hippocampus | severe loss of neurons in the hippocampus | loss of neurons
4 | CCCCCCCCCCCCC/C=C/[C@@H](O)[C@@H](N)COP(=O)([O-])OCC[N+](C)(C)C [lysosphingomyelin, sphingosyl phosphoryicholine] | – | – | – | – | – | – | – | no calcium signalling measurably over controls | – | – | – | – | – | –
